*: point of attachment. NHNH2 = NN*
Columns and labels:
Assay type in all cases: cell-based
[1] = test system: A549 cells; assay: RLuc pDNA delivery, robotic library screening, A549
Summary of the method: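 A549 cells in DMEM+10% FBS were washed twice with PBS and exposed for 4 h to amphiphile/RLuc pDNA complexes prepared from DMSO stocks diluted in DMEM. After medium replacement and 72 hours, cells in HBSS were incubated at 37° C. for 30 minutes, basal then total luminescence measured after 5 μM coelenterazine h; background from untransfected cells was subtracted.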

[2] = test system: HCT116 cells; assay: RLuc pDNA delivery, robotic library screening, HCT116
[3] = test system: Hek293 cells; assay: RLuc pDNA delivery, robotic library screening, Hek293
[4] = test system: Hela cells; assay: RLuc pDNA delivery, robotic library screening, HeLa
[5] = test system: Hek293 cells expressing EGFP; assay: EGFP-targeting siRNA delivery (GFP silencing vs siMOCK), Hek293
Method: To generate an EGFP expressing HeLa cell line, HeLa cells were transfected with EGFP pDNA (pEGFP-C1, Clontech) and stable transfectants were selected with 400 μg/mL of G-418 (Millipore). Green clones were selected by epifluorescence microscopy and tested for EGFP expression stability through several passages. […] All other EGFP-expressing cell lines were obtained in a similar way from parent non-EGFP-expressing cell lines.
Cells expressing EGFP were seeded in a 96 well plate the day before the experiment at a concentration of 50,000 cell/mL (100 μL/w) in DMEM+10% FBS+1% Gln-Abt. For robotic library screening, the delivery of an EGFP-targeting siRNA (EGFP: enhanced green fluorescent protein, Ambion® Silencer® GFP Positive Control siRNA (siGFP) (AM4626)) in six different cell lines expressing EGFP was performed. […] The mixture was shaken for 30 min at room temperature (rt) before the addition to the cells. The cell medium was aspirated, and cells were washed twice with PBS. Finally, 50 μL of the solution of siRNA/amphiphile complexes were added to the cells and incubated for 4 h. After transfection, the medium was replaced by 100 μL of fresh DMEM supplemented with 10% FBS. The fluorescence knockdown was quantified after 72 h in a plate reader, by comparison with cells transfected with a non-targeting siRNA control (siMOCK, Silencer™ Negative Control No. 1 siRNA (siMOCK) (AM4611)). EGFP knockdown was compared with Lipofectamine® RNAiMAX silencing efficiency (30-60% depending on cell line, defined with a numeric value in the below tables). All experiments were done in triplicate.
Tables 1-7: RLuc (pDNA) or EGFP (mRNA) expression levels were normalized to Lipofectamine reagents (value=1) and expressed as fold-times signal increase. In the case of siRNA, the siRNA treated cells fluorescence was compared with siMOCK control fluorescence, while Cas9-RNP mediated knockout was measured against the fluorescence of untreated cells. In both siRNA and Cas9-RNP, values are expressed as % fluorescence reduction. Amphiphile concentration was 5 μM in all cases. All experiments were performed in triplicate.
Tables 20-25 show the mean (triplicates) percentage of GFP-silencing, accounted by fluorescence intensity decrease relative to a non-targeting siRNA (siMOCK) control, measured after the transfection of siRNA by different amphiphiles at different concentrations in a variety of cell lines. Background values, accounted by untreated control cells, were subtracted for processing.

## Ac-RHLK*RLK*RRLK*RL-NH2 (Ac-RHLKRLKRRLKRL-NH2; not fully specified (residues 4, 7, 11); printed as Ac-RHLK*RLK*RRLK*RL-NH2; also: linker on K* not given here) [13(Arg-His)]
[1]; Dodecanal, 5 μM
  mean luminescent intensity (RLuc pDNA): 6594 RLU
[1]; Myristoleyl, 5 μM
  mean luminescent intensity (RLuc pDNA): 8162 RLU
[1]; Oleyl, 5 μM
  mean luminescent intensity (RLuc pDNA): 14340 RLU
[1]; Palmitoleyl, 5 μM
  mean luminescent intensity (RLuc pDNA): 8561 RLU
[1]; Palmitoleyl, 15 μM
  mean luminescent intensity (RLuc pDNA): 3763 RLU
[1]; Petroselinyl, 15 μM
  mean luminescent intensity (RLuc pDNA): 9721 RLU
[2]; Dodecanal, 5 μM
  mean luminescent intensity (RLuc pDNA): 237160 RLU
[2]; Dodecanal, 10 μM
  mean luminescent intensity (RLuc pDNA): 20219 RLU
[2]; Dodecanal, 15 μM
  mean luminescent intensity (RLuc pDNA): 2518 RLU
[2]; Myristoleyl, 15 μM
  mean luminescent intensity (RLuc pDNA): −246 RLU
[2]; Oleyl, 5 μM
  mean luminescent intensity (RLuc pDNA): 18755 RLU
[2]; Oleyl, 10 μM
  mean luminescent intensity (RLuc pDNA): 2608 RLU
[2]; Palmitoleyl, 5 μM
  mean luminescent intensity (RLuc pDNA): 244732 RLU
[2]; Petroselinyl, 5 μM
  mean luminescent intensity (RLuc pDNA): 105576 RLU
[2]; Petroselinyl, 15 μM
  mean luminescent intensity (RLuc pDNA): 4534 RLU
[3]; Dodecanal, 5 μM
  mean luminescent intensity (RLuc pDNA): 265059 RLU
[3]; Dodecanal, 10 μM
  mean luminescent intensity (RLuc pDNA): 309302 RLU
[3]; Dodecanal, 15 μM
  mean luminescent intensity (RLuc pDNA): 78888 RLU
[3]; Palmitoleyl, 5 μM
  mean luminescent intensity (RLuc pDNA): 280799 RLU
[3]; Palmitoleyl, 10 μM
  mean luminescent intensity (RLuc pDNA): 124471 RLU
[3]; Palmitoleyl, 15 μM
  mean luminescent intensity (RLuc pDNA): 19968 RLU
[3]; Petroselinyl, 5 μM
  mean luminescent intensity (RLuc pDNA): 258944 RLU
[3]; Petroselinyl, 10 μM
  mean luminescent intensity (RLuc pDNA): 217264 RLU
[3]; Petroselinyl, 15 μM
  mean luminescent intensity (RLuc pDNA): 101890 RLU
[4]; Hela, Myristoleyl, 5 μM
  mean luminescent intensity (RLuc pDNA): −195 RLU
[4]; Hela, Myristoleyl, 10 μM
  mean luminescent intensity (RLuc pDNA): −333 RLU
[4]; Hela, Myristoleyl, 15 μM
  mean luminescent intensity (RLuc pDNA): −332 RLU
[4]; Hela, Palmitoleyl, 5 μM
  mean luminescent intensity (RLuc pDNA): 5484 RLU
[4]; Hela, Palmitoleyl, 10 μM
  mean luminescent intensity (RLuc pDNA): 921 RLU
[4]; Hela, Petroselinyl, 5 μM
  mean luminescent intensity (RLuc pDNA): 8590 RLU
[5]; Dodecanal, 5 μM
  percentage of GFP-silencing relative to siMOCK: 24%
[5]; Dodecanal, 10 μM
  percentage of GFP-silencing relative to siMOCK: 39%
[5]; Dodecanal, 15 μM
  percentage of GFP-silencing relative to siMOCK: 44%
[5]; Myristoleyl, 10 μM
  percentage of GFP-silencing relative to siMOCK: 48%
[5]; Myristoleyl, 15 μM
  percentage of GFP-silencing relative to siMOCK: 25%
[5]; Oleyl, 10 μM
  percentage of GFP-silencing relative to siMOCK: 39%
[5]; Oleyl, 15 μM
  percentage of GFP-silencing relative to siMOCK: 47%
[5]; Petroselinyl, 5 μM
  percentage of GFP-silencing relative to siMOCK: 30%
[5]; Petroselinyl, 10 μM
  percentage of GFP-silencing relative to siMOCK: 5%
[5]; Petroselinyl, 15 μM
  percentage of GFP-silencing relative to siMOCK: 18%

## Ac-RK*LRK*K*L-NH2 (Ac-RK(NHNH2)LRK(NHNH2)K(NHNH2)L-NH2; not fully specified; printed as Ac-RK*LRK*K*L-NH2; also: K*2,K*5,K*6: native or modified lysine (ε-amide to a linker)) [Peptide 7.3]
[1]; Dodecanal, 5 μM
  mean luminescent intensity (RLuc pDNA): 483 RLU
[1]; Dodecanal, 15 μM
  mean luminescent intensity (RLuc pDNA): 777 RLU
[1]; Palmitoleyl, 10 μM
  mean luminescent intensity (RLuc pDNA): 3679 RLU
[1]; Petroselinyl, 5 μM
  mean luminescent intensity (RLuc pDNA): 4314 RLU
[2]; Dodecanal, 10 μM
  mean luminescent intensity (RLuc pDNA): 1049 RLU
[2]; Dodecanal, 15 μM
  mean luminescent intensity (RLuc pDNA): 1534 RLU
[2]; Myristoleyl, 5 μM
  mean luminescent intensity (RLuc pDNA): 1060 RLU
[2]; Myristoleyl, 10 μM
  mean luminescent intensity (RLuc pDNA): 7147 RLU
[2]; Myristoleyl, 15 μM
  mean luminescent intensity (RLuc pDNA): 212 RLU
[2]; Petroselinyl, 5 μM
  mean luminescent intensity (RLuc pDNA): 62932 RLU
[2]; Petroselinyl, 10 μM
  mean luminescent intensity (RLuc pDNA): 58529 RLU
[2]; Petroselinyl, 15 μM
  mean luminescent intensity (RLuc pDNA): 16332 RLU
[3]; Dodecanal, 10 μM
  mean luminescent intensity (RLuc pDNA): 11481 RLU
[3]; Dodecanal, 15 μM
  mean luminescent intensity (RLuc pDNA): 13690 RLU
[3]; Myristoleyl, 5 μM
  mean luminescent intensity (RLuc pDNA): 94318 RLU
[3]; Myristoleyl, 10 μM
  mean luminescent intensity (RLuc pDNA): 179823 RLU
[3]; Palmitoleyl, 5 μM
  mean luminescent intensity (RLuc pDNA): 2088 RLU
[3]; Petroselinyl, 5 μM
  mean luminescent intensity (RLuc pDNA): 7479 RLU
[3]; Petroselinyl, 10 μM
  mean luminescent intensity (RLuc pDNA): 2932 RLU
[4]; HeLa, Dodecanal, 5 μM
  mean luminescent intensity (RLuc pDNA): 5231 RLU
[4]; Hela, Myristoleyl, 5 μM
  mean luminescent intensity (RLuc pDNA): −622 RLU
[4]; Hela, Myristoleyl, 10 μM
  mean luminescent intensity (RLuc pDNA): −417 RLU
[4]; Hela, Myristoleyl, 15 μM
  mean luminescent intensity (RLuc pDNA): −422 RLU
[4]; Hela, Palmitoleyl, 15 μM
  mean luminescent intensity (RLuc pDNA): 19128 RLU
[4]; Hela, Petroselinyl, 15 μM
  mean luminescent intensity (RLuc pDNA): 12638 RLU
[5]; Myristoleyl, 5 μM
  percentage of GFP-silencing relative to siMOCK: 29%
[5]; Oleyl, 5 μM
  percentage of GFP-silencing relative to siMOCK: 26%
[5]; Palmitoleyl, 15 μM
  percentage of GFP-silencing relative to siMOCK: 19%
[5]; Petroselinyl, 15 μM
  percentage of GFP-silencing relative to siMOCK: 3%

## Ac-RK*LRRK*L-NH2 (Ac-RK(NHNH2)LRRK(NHNH2)L-NH2; not fully specified; printed as Ac-RK*LRRK*L-NH2; also: K*2,K*6: native or modified lysine (ε-amide to a linker)) [Peptide 7.2]
[1]; Dodecanal, 5 μM
  mean luminescent intensity (RLuc pDNA): 302 RLU
[1]; Dodecanal, 15 μM
  mean luminescent intensity (RLuc pDNA): 208 RLU
[1]; Myristoleyl, 5 μM
  mean luminescent intensity (RLuc pDNA): 5449 RLU
[1]; Myristoleyl, 10 μM
  mean luminescent intensity (RLuc pDNA): 5343 RLU
[1]; Myristoleyl, 15 μM
  mean luminescent intensity (RLuc pDNA): 2367 RLU
[2]; Dodecanal, 5 μM
  mean luminescent intensity (RLuc pDNA): 911 RLU
[2]; Dodecanal, 10 μM
  mean luminescent intensity (RLuc pDNA): 729 RLU
[2]; Dodecanal, 15 μM
  mean luminescent intensity (RLuc pDNA): 684 RLU
[2]; Myristoleyl, 5 μM
  mean luminescent intensity (RLuc pDNA): −526 RLU
[2]; Myristoleyl, 10 μM
  mean luminescent intensity (RLuc pDNA): −505 RLU
[2]; Myristoleyl, 15 μM
  mean luminescent intensity (RLuc pDNA): −526 RLU
[3]; Dodecanal, 10 μM
  mean luminescent intensity (RLuc pDNA): 8723 RLU
[3]; Dodecanal, 15 μM
  mean luminescent intensity (RLuc pDNA): 11358 RLU
[3]; Myristoleyl, 5 μM
  mean luminescent intensity (RLuc pDNA): 5382 RLU
[3]; Myristoleyl, 10 μM
  mean luminescent intensity (RLuc pDNA): 24464 RLU
[3]; Myristoleyl, 15 μM
  mean luminescent intensity (RLuc pDNA): 8475 RLU
[4]; HeLa, Dodecanal, 5 μM
  mean luminescent intensity (RLuc pDNA): 2459 RLU
[4]; Hela, Myristoleyl, 5 μM
  mean luminescent intensity (RLuc pDNA): −664 RLU
[4]; Hela, Myristoleyl, 10 μM
  mean luminescent intensity (RLuc pDNA): −678 RLU
[4]; Hela, Myristoleyl, 15 μM
  mean luminescent intensity (RLuc pDNA): −687 RLU
[5]; Dodecanal, 15 μM
  percentage of GFP-silencing relative to siMOCK: 7%
[5]; Myristoleyl, 5 μM
  percentage of GFP-silencing relative to siMOCK: −8%
